Results from patent publication US11033518B2, “Pharmaceutical composition containing niclosamide for treating axin-GSK3 interaction-related diseases” (BAOBAB PHARM CO., LTD., priority 2017, dated 2021).

How the values were obtained:
[1] = target: T1, recombinant GSK3 beta - Axin peptide interaction (Homo sapiens, UniProt P49841); assay: Competitive binding of FITC-linked 19-mer Axin peptide to recombinant GSK3 (fluorometry); details: 2 hours, Ni-Ti beads
T1 construct: made in house; host or cells: Sf9 insect cells (GSK3 beta); The peptide was synthesized by Peptron
T1 sequence (P49841 whole entry): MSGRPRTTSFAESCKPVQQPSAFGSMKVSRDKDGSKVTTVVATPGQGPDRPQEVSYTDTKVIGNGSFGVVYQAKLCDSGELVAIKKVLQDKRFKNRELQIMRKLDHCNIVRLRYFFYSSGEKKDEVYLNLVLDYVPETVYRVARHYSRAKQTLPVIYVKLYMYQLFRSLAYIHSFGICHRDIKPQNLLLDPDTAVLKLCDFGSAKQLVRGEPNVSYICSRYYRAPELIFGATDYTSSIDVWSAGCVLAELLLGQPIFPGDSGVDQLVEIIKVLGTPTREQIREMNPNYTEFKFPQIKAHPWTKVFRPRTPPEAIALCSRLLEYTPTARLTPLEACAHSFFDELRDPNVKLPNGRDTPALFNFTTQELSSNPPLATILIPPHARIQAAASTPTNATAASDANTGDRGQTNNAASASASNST
Excerpt: Since it was disclosed that the hydrophobic residues of alpha helix of Axin were accumulated to the hydrophobic groove formed by the C-terminal loop of GSK3, in the result of structural analysis of Axin-GSK3 binding announced in the past (Dajani R et al., EMBO J. 22:494-501, 2003), the present inventors hypothesized that niclosamide binds to the hydrophobic groove of GSK3 and interferes with the function of Axin, and in order to confirm it, they designed in vitro analysis to confirm competitive inhibition by niclosamide of recombinant GSK3 which binds to a 19-mer FITC-linked Axin peptide.
His-tagged recombinant GSK3 beta was obtained from sf9 insect cells by the known method (Lee D G, et al. Nat Commun. 5:4423, 2014). The FITC-linked 19-mer Axin peptide known to bind to GSK3 as amphipathic alpha-helix (Axin1, 383-401, VEPQKFAEELIHRLEAVQR) was chemically synthesized (Peptron). In order to confirm competitive binding of the synthesized Axin peptide and niclosamide, His-tagged recombinant GSK3 and […] were treated with niclosamide for 2 hours, and were washed with PBS 3 times and then quantitative fluorometry was performed using […]. The fluorescence strength was shown in proportion to the fluorescence strength obtained in the negative control group from 3 times of experiments.

[2] = system: TCF/LEF transcriptional activity induced by mutant APC; assay: TCF/LEF transcriptional activity in 293 cell transformed by mutant APC; assay type: cell-based; details: 0, 0.125, 0.25, 0.5 μM, 24 hours
Experimental: Based on the results of Examples 2-5 that niclosamide inhibited Wnt activity and EMT through Axin-GSK3 inhibition, whether niclosamide could attenuate the TCF/LEF transcriptional activity induced by mutant APC was confirmed.
After transforming the mutant APC expression vector, pCMV-neo-Bam APC 1-1309 (#16508, Addgene) or pCMV-neo-BamAPC 1-1941 (#16510, Addgene) and Topflash reporter vector to 293 cell (ATCC), niclosamide (0 μM, 0.125 μM, 0.25 μM and 0.5 μM) was treated for 24 hours. The TCF/LEF transcriptional activity was quantified by measuring the luciferase activity as same as Example 2.

beta-catenin (β-catenin) = assay: beta-catenin western blot in colorectal cancer cells; assay type: cell-based; details: 0, 0.125, 0.25, 0.5 nM, 24 hours; as concentration increased
Experimental: At first, after treating niclosamide of nM units at concentrations of 0 nM, 0.125 nM, 0.25 nM and 0.5 nM to colorectal cancer cells for 24 hours, the beta-catenin (β-catenin) activity and TCF/LEF reporter (Topflash) activity of colorectal cancer cells were measured.
For beta-catenin, western blot was performed using β-catenin (#610154, BD Transduction, 1:5,000) antibody, and as a result, as shown in B (left) of FIG. 1, expression of beta-catenin in colorectal cancer cells was reduced as the concentration of treated niclosamide was increased.

[3] = system: GSK3, β-catenin and Snail; assay: Immunoblotting of nucleo-cytoplasm fractions of colorectal cancer cells; assay type: cell-based; details: 0.25 nM, 24 hours, HCT116, SW480 and DLD-1
Experimental: After treating niclosamide of 0.25 nM to colorectal cancer cell lines HCT116, SW480 and DLD-1 cells for 24 hours, the amount of GSK3, β-catenin and Snail of nucleo-cytoplasm fractions was analyzed by immunoblotting.
The amount of Snail and GSK3 protein in cells was confirmed by separating nuclei and cytoplasm in the hypotonic solution (Kim N H, et al., Sci Signal. 4:ra71, 2011; Yook J I, et al. Nat Cell Biol., 8:[…], 2006). Briefly, after collecting colorectal cancer cells (1×10^6 cells) in a centrifugation tube, they were washed with PBS and were treated with the hypotonic solution (10 mM HEPES, pH7.9; 10 mM KCl; 1 mM DTT with protease inhibitors) 400 μl on ice for 5 minutes. The cell membrane was degraded by addition of 10% NP-40, and the final concentration was adjusted to 0.6% final concentration, and then was mixed well and high-speed centrifugation was conducted for 30 seconds. The cytoplasmic resolvents were separated and nuclear precipitates were washed with cold PBS twice. The nucleoprotein was extracted by treating hypertonic buffer (20 mM HEPES, pH7.9; 0.4 M NaCl; 1 mM DTT with protease inhibitors) on ice for 15 minutes, and then high-speed centrifugation was conducted, and the amount of GSK3, β-catenin and Snail of nucleo-cytoplasm fractions was analyzed by immunoblotting.

Snail, E-cadherin [4] = assay: Snail western blot and E-cadherin dual luciferase assay in colorectal cancer cells; assay type: cell-based; details: as concentration increased
Excerpt: In order to confirm whether niclosamide induced snail-mediated EMT recovery, beta-catenin (β-catenin) expression and TCF/LEF reporter (Topflash) activity change, and Snail and E-cadherin protein expression were confirmed.
Through the western blot, Snail expression change was confirmed, and through the dual luciferase assay system, the expression of E-cadherin protein was confirmed.

[5] = system: HCT116, SW480 and DLD-1 cells; assay: Cell mobility of colorectal cancer cells through basement membrane; assay type: cell-based; details: nM level, 48 hours
Experimental: At first, the effect on the cell mobility of colorectal cancer cells of niclosamide was confirmed. Colorectal cancer cell lines HCT116, SW480 and DLD-1 cells were cultured under the condition with or without niclosamide for 48 hours, and then the upper part of the membrane was rubbed with a cotton swab and the number of movements of cells inserted into the basement membrane was stained with 0.25% crystal violet and counted. Cells were counted in five random fields.

Snail, E-cadherin [6] = assay: Immunoblot of Snail and E-cadherin in SW480 xenograft tumor; assay type: in vivo, mice; details: 50 mg/kg, 200 mg/kg intraperitoneally for 3 days
Experimental: In order to investigate in vivo MoA of niclosamide controlling Snail-mediated EMT, through xenografts, the change of protein amount of Snail and E-cadherin in the tumor by niclosamide treatment was confirmed. The colorectal cancer cell line, SW480 cells (5×10^6) were subcutaneously injected to nude mice. When the tumor size became 500 mm^3 on average, mice were randomly divided into 3 groups, and a vehicle or niclosamide (50 mg/kg, 200 mg/kg) was intraperitoneally injected for 3 days. After sacrificing mice, the tumor tissue part was separated using Pro-prep protein extraction solution (#17081, Intron), and the amount of protein of Snail and E-cadherin in the tumor sample was measured by immunoblot assay.

## O=C(Nc1ccc([N+](=O)[O-])cc1Cl)c1cc(Cl)ccc1O [niclosamide]
[1]
  interaction between recombinant GSK3 and synthesized Axin peptide: inhibited in proportion to the administration concentration
[2]
  TCF/LEF transcriptional activity increased by mutant APC: reduced
beta-catenin (β-catenin)
  expression of beta-catenin: reduced
[3]
  GSK3 of nuclei: increased
  amount of Snail: reduced
  amount of beta-catenin: reduced
Snail, E-cadherin [4]; dual luciferase assay
  E-cadherin (promoter activity): increased
Snail, E-cadherin [4]; western blot
  expression of Snail: reduced
[5]
  potential of movements of colorectal cancer cells: largely reduced
Snail, E-cadherin [6]
  amount of E-cadherin in tumor: increased
  presence of Snail in tumor: reduced
